PMC9130233, “An inhibitor of RORγ for chronic pulmonary obstructive disease treatment” (Scientific Reports, 2022)
Like-named read-outs stand apart in the source and are kept apart here. Marks after values point to notes of the source that are not given here.

Columns and labels:
Kinases (~ 40 in no) = test: Kinase panel (~ 40); format: biochemical; parameters: key: NSE No significant effect; V wk very weak (very low-level agonist activity seen with mPPARγ); settings: at 10 µM
From the text: (§1) Based on the homology of the ligand binding domains, 3 different isoforms of ROR (hRORα, hRORβ and hRORγ) are reported. Small variations in the LBD regions possibly lead to differences in competitive binding between the nuclear receptors of the ROR isoforms (Fig. 1b). Similar to the assessment of RORγ binding assay, TR-FRET binding assays were also used to assess the affinity of PCCR-1 for other ROR isoforms. […] This was reconfirmed in cellular functional assays for the selected isoforms and nuclear receptors using Gal4 DBD with luciferase reporter system from Indigo (PA, USA). […] In addition, both cellular agonist and antagonist effects as well as for enzyme activity were evaluated with a known reference compound for each target, using a radiolabeled method (Eurofins Cerep, France, Table 1).

[1] = tested on: IL-17 release from COPD patient whole blood; test: IL-17 release, whole blood from COPD patients; format: cell-based; settings: Homo sapiens; TCR stimulated, n = 5; read-out: IL-17 IC50, COPD patient's sample: WB
Procedure: Whole blood and BAL samples from COPD patients were obtained from Multispecialty hospital, Mumbai post approval from ethics committee and informed consent of patients. 30–40 mL Broncho alveolar lavage (BALf) was collected per patient and stored in ice. Blood was collected in heparin vaccutainer as per approved protocol. Both the samples were processed within 2 h of collection. BALF was passed through 100-µm and 40-µm cell strainer to remove debris and mucus, the samples were centrifuged and the cells were re-suspended in RPMI 1640 complete medium. PBMCs from blood were isolated using Histopaque-1077 by density gradient centrifugation. Isolated BAL cells and PBMCs were seeded in 96 well coated with 10 µg/ml anti-CD3 and 2 µg/ml anti-CD2. Cells were further treated with different concentration of test compound for 60 min followed by stimulation with 20 µg/ml anti-CD28 and incubated for 48–72 h. The supernatant was used for estimating IL-17 by ELISA.

RORα = RORα (Homo sapiens, UniProt P35398); test: Transactivation assay, Gal4 DBD luciferase reporter (Indigo); format: cell-based
From the text: as §1

[2] = tested on: IL-17 release in human neutrophils; test: IL-17 release, human neutrophils, PMA + ionomycin; format: cell-based; settings: Neutrophil, n = 4, read-out: potency, IL-17 release inhibition
Procedure: The human neutrophils were isolated by Ficoll-Hypaque by centrifugation of blood from healthy subjects at 700 g for 30 min, followed by erythrocyte lysis with distilled water for 30 s. Cells were washed in PBS and post 1 h treatment with PCCR-1, cells were stimulated with 50 ng/mL PMA and 2 µg/mL Ionomycin. After 18 h the supernatant was collected for IL-17 estimation by ELISA.

[3] = tested on: IL-17A release in human PBMC; test: IL-17A release, human PBMC, anti-CD3 + anti-CD28; format: cell-based
From the text: Inhibition of RORγ by PCCR-1 was also estimated in a functional assay by measuring the inhibition of Th17 dependent cytokine IL-17A release in human peripheral blood mononuclear cells (PBMCs), mouse splenocytes and canine PBMC stimulated with their respective anti-CD3 and anti-CD28 antibodies.
Human whole blood from healthy subjects were procured from Clinical Research Unit, Sanpada. Clinical Research Center Glenmark (Plot No. D, 508, Turbhe, TTC Industrial Area, MIDC, Sanpada, Navi Mumbai, Maharashtra 400705, India). PBMCs were isolated using heparinized blood with Ficoll Histopaque. Briefly, the cells were seeded in 96-well plate pre-coated with human anti-CD3 mAb (10 µg/mL), post 30 min of compound treatment cells were stimulated with human anti-CD28 mAb (2 µg/mL). After 72 h of culture, the supernatant was collected for Th1/Th2 cytokines; IFN-γ, IL-2, IL-4 and IL-10 and measured by ELISA. For Th17 polarization assay, the following cytokine cocktail was used: IL-1β (10 ng/ml), IL-23(10 ng/ml), IL-6 (50 ng/ml), TGF-β1 (3 ng/ml), IL-2 (20U/ml) and supernatants were used for measuring IL-17 and IL-22 by ELISA.

[4] = tested on: IL-17 cytokine from rat splenocytes; test: IL-17 inhibition, rat splenocytes; format: cell-based; settings: Splenocyte, read-out: potency, rat IL-17 inhibition
[5] = 14-day dose-range inhalation toxicology study in Sprague Dawley rats; format: in vivo, rat
Procedure: Rats were exposed to PCCR-1 aerosols at 3.4, 10.8 and 32.1 mg/kg/day (delivered dose) for 60 min daily for 14 days using a snout only exposure technique via a modular stainless steel flow past inhalation chamber at indicated doses as mentioned in Table 3. No treatment-related findings noted, including myeloid:erythroid (M:E) ratios in any dose levels except minimal changes in the reticulocytes and adrenal glands.
The 14-day dose-range inhalation toxicology study was conducted at Charles River Laboratories Edinburgh Ltd, Elphinstone Research Centre, Tranent, East Lothian, EH33 2NE, UK, under the Home Office Project License No. PPL 70/8778, Toxicology of Pharmaceuticals. The UK Home Office controls scientific procedures on animals in the UK and does so by the issue of licences under the Animals (Scientific Procedures) Act 1986. The regulations conform to EU Directive 2010/63/EU and achieve the standard of care required by the US Department of Health and Human Services' Guide for the Care and Use of Laboratory Animals.
The toxicology study was done in SD (Sprague Dawley) rats that were exposed to PCCR-1 aerosol for 60 min daily at 3.4, 10.8 and 32.1 mg/kg/day (delivered dose) for 14 days using a snout only exposure technique via a modular stainless steel flow past inhalation chamber. A 60% w/w blend of PCCR-1 in Lactose LH201 was prepared by adding the appropriate amount of PCCR-1 to the appropriate amount of lactose. The estimated delivered doses were derived based on analytical aerosol concentration, and respiratory minute volume calculated based on body weight, exposure duration, and animal body weight (Supplementary section B).

[6] = Females (n = 5/group), 32.1 mg/kg/day
[7] = Males (n = 5/group), 32.1 mg/kg/day

Chain of RORα (P35398 272-523 limits assumed): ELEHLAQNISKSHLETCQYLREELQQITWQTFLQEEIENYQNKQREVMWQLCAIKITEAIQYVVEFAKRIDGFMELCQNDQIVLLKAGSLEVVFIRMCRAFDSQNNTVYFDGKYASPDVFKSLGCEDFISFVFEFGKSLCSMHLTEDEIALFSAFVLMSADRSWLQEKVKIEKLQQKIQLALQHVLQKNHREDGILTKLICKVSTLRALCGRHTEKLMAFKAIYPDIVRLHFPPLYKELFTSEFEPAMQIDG

SMILES: CCn1c(C(C)(C)Oc2ccc(F)cc2F)nc2cc(NC(=O)Cc3ccc(S(=O)(=O)CC)cc3)ccc21 [PCCR-1]
- Kinases (~ 40 in no) (Kinases (~ 40 in no)): NSE at 10 µM
- IC50 [1]: 5050 nM
- effect in transactivation assays for RORα inhibition (RORα): no effect
- IC50 [2]: 3660 nM
- IC50 ([3]; TCR activating conditions, comparative Th1/Th2/Th17 study (Fig. 3A), read-out: hIL-17 (IL-17A) IC50): 94.3 nM
- IC50 ([3]; anti-CD3 + anti-CD28, n = 24 (Fig. 1D), read-out: Cellular activity: Human IC50, IL-17A release): 117 nM
- IC50 [4]: 80.6 nM
- Microscopic changes: Hypertrophy; zona fasciculata, diffuse (animals affected) [5, 6]: 3
- Microscopic changes: hypertrophy, Mild (animals affected) [5, 6]: 2
- Microscopic changes: hypertrophy, Minimal (animals affected) [5, 6]: 1
- adrenal gland Absolute weight (mean ± SD) ([5]; Females, 32.1 mg/kg/day): 0.0950 ± 0.0139 g
- adrenal gland weight Relative to body weight (mean ± SD) ([5]; Females, 32.1 mg/kg/day): 0.03168 ± 0.00549%
- adrenal gland weight Relative to brain weight (mean ± SD) ([5]; Females, 32.1 mg/kg/day): 4.657 ± 0.6176%
- Reticulocyte count (mean ± SD) ([5]; Females, 32.1 mg/kg/day, P ≤ 0.01): 295.4 ± 40.3* 10^9/L
- Microscopic changes: Hypertrophy; zona fasciculata, diffuse (animals affected) [5, 7]: 0
- Microscopic changes: hypertrophy, Mild (animals affected) [5, 7]: 0
- Microscopic changes: hypertrophy, Minimal (animals affected) [5, 7]: 0
- Reticulocyte count (mean ± SD) ([5]; Males, 32.1 mg/kg/day): 287.7 ± 62.6 10^9/L
- adrenal gland Absolute weight (mean ± SD) ([5]; Males, 32.1 mg/kg/day): 0.0581 ± 0.0083 g
- adrenal gland weight Relative to body weight (mean ± SD) ([5]; Males, 32.1 mg/kg/day): 0.01553 ± 0.00171%
- adrenal gland weight Relative to brain weight (mean ± SD) ([5]; Males, 32.1 mg/kg/day): 2.803 ± 0.3041%
- MTD at 14 days ([5]; Sprague Dawley, in vivo, inhaled or intranasal, rat, 14-day inhalation, read-out: maximum tolerated dose): 32.1 mg/kg/day
- Microscopic changes: hypertrophy, Minimal (animals affected) ([5]; female, Sprague-Dawley, rat, in vivo, 14 days): 0
- histopathological change of the adrenal gland ([5]; rat, in vivo): bilateral diffuse hypertrophy of the zona fasciculata
- reticulocyte count compared with the control group ([5]; rat, in vivo): 1.09 fold
